Data taken from article PMC4303912, “A primary fish gill cell culture model to assess pharmaceutical uptake and efflux: Evidence for passive and facilitated transport” (Aquatic Toxicology (Amsterdam, Netherlands), 2015).
Like-named read-outs stand apart in the source and are kept apart here. Marks after values point to notes of the source that are not given here.

Legend:
[1] = cited from earlier work
DSI gill cell epithelium [2] = assay: Concentration equilibrium transport assays (CETA); conditions: for CETA, percentage of initial concentration apical versus basal: 1 μg L^−1 both sides, over 48 h
[3] = Bidirectional transport assays (BTA), apparent permeability coefficients and transport ratios; conditions: rainbow trout (Oncorhynchus mykiss)
DSI gill cell epithelium [4] = assay: as above; conditions: for difference between Papp A:B and Papp B:A: 6 h; for time-dependent BTA, uptake versus efflux (% of donor concentration): over 48 h
[5] = design: method as in AstraZeneca, 2014; conditions: experimentally measured values, ref AstraZeneca, 2014, cited from earlier work
[6] = pH-dependent transport of propranolol; assay type: in vitro ADME, rainbow trout (Oncorhynchus mykiss); conditions: rainbow trout (Oncorhynchus mykiss); for Papp B→A at 6 h, 1 μg L^−1: 1 μg L^−1, read-out: Papp B:A (efflux permeability)
DSI gill cell epithelium [7] = assay: pH-dependent transport of propranolol; assay type: in vitro ADME, rainbow trout (Oncorhynchus mykiss); conditions: pH from 8 to 9.5; asymmetrical; 6 h
DSI gill cell epithelium [8] = assay: Concentration-dependent uptake of propranolol, in vitro basal concentrations; assay type: in vitro ADME, rainbow trout (Oncorhynchus mykiss); conditions: for In vitro concentration (basal compartment): 6 h apical exposure, asymmetrical
Protocol: Radioactivity was analyzed as previously described in Section 2.3.
This was calculated using the mammalian fish leverage model, whereby the predicted plasma concentration can be described by multiplying the environmental concentration by the blood to water partitioning coefficient ([Huggett et al., 2004]) using the Fitzsimmons model for the partitioning of compounds between blood and water ([Fitzsimmons et al., 2001]).

[9] = design: method as in Owen et al., 2009; conditions: ref Owen et al., 2009, cited from earlier work; for In vivo plasma concentration: 40 days exposure
DSI gill cell epithelium [10] = conditions: for Uptake TR (Papp A:B/Papp B:A): rainbow trout (Oncorhynchus mykiss)
in vitro = conditions: rainbow trout (Oncorhynchus mykiss)
[11] = system: propranolol uptake across DSI gill cell epithelium; assay: Inhibition of the uptake of propranolol by transporter inhibitors; conditions: 400 nM inhibitor, 48 h
[12] = Membrane (paracellular) permeability with 14C-mannitol; assay type: in vitro ADME, rainbow trout (Oncorhynchus mykiss); conditions: for Papp A→B at 24 h, 0.43 nM: rainbow trout (Oncorhynchus mykiss)
[13] = nominal water concentration 10 μg L^−1
[14] = nominal water concentration 100 μg L^−1
[15] = nominal water concentration 1000 μg L^−1
[16] = nominal water concentration 10,000 μg L^−1

Compound: CNC(=C[N+](=O)[O-])NCCSCc1ccc(CN(C)C)o1 [Ranitidine, ranitidine]
- pKa [1]: 8.08
- facilitated transport as share of the total transport, efflux (DSI gill cell epithelium [2]; CETA, efflux): around 5%
- CETA, percentage of initial concentration apical versus basal (DSI gill cell epithelium [2]; symmetrical conditions): no significant differences
- efflux ratio at 6 h, 1 μg L^−1 [3]: 0.83
- difference between Papp A:B and Papp B:A (DSI gill cell epithelium [4]; asymmetrical conditions): no significant differences
- time-dependent BTA, uptake versus efflux (% of donor concentration) (DSI gill cell epithelium [4]; asymmetrical conditions): taken up across the gill cell surface than effluxed
- time-dependent BTA, uptake versus efflux (% of donor concentration) (DSI gill cell epithelium [4]; symmetrical conditions): greater efflux transport

Compound: CC(C)(C)NCC(O)c1cc(O)cc(O)c1 (centres unmarked) [Terbutaline, terbutaline]
- log Kow ([5]; no pH given): 1.29
- CETA, percentage of initial concentration apical versus basal (DSI gill cell epithelium [2]; asymmetrical conditions): no signs of facilitated transport
- CETA, percentage of initial concentration apical versus basal (DSI gill cell epithelium [2]; symmetrical conditions): no significant differences
- efflux ratio at 6 h, 1 μg L^−1 [3]: 1.09
- efflux ratio at 6 h, 1 μg L^−1 ([3]; pH 7.7): 1.13
- difference between Papp A:B and Papp B:A (DSI gill cell epithelium [4]; asymmetrical conditions): no significant differences
- time-dependent BTA, uptake versus efflux (% of donor concentration) (DSI gill cell epithelium [4]; asymmetrical conditions): slightly greater uptake than efflux

Compound: CC(C)NCC(O)COc1cccc2ccccc12 (centres unmarked) [Propranolol, propranolol]
- Papp A→B at 6 h, 1 μg L^−1 ([6]; apical freshwater pH 6, asymmetrical, 1 μg L^−1, read-out: Papp A:B (uptake permeability)): 0.4 ± 0.03 ×10⁻⁶ cm/s
- Papp B→A at 6 h, 1 μg L^−1 ([6]; apical freshwater pH 6, asymmetrical): 2.8 ± 0.1 ×10⁻⁶ cm/s
- Papp B→A at 6 h, 1 μg L^−1 ([6]; apical freshwater pH 8, asymmetrical): 0.8 ± 0.1 ×10⁻⁶ cm/s
- effect of pH increase on Papp (DSI gill cell epithelium [7]): without significant effect
- in vitro basolateral concentration as average share of actual plasma concentration (DSI gill cell epithelium [8]): 16%
- in vitro basolateral concentration as average share of predicted plasma concentration (DSI gill cell epithelium [8]): 6%
- slope of [rate] versus [concentration] (flux) (DSI gill cell epithelium [8]; 0.014–10,000 μg L^−1, 6 h, linear regression, n = 54, r^2 = 0.974): 0.052
- slope of [in vitro] versus [actual] plasma concentration (DSI gill cell epithelium [8]; n = 21, r^2 = 0.966): 0.155
- slope of [in vitro] versus [predicted] plasma concentration (DSI gill cell epithelium [8]; n = 21, r^2 = 0.995): 0.063
- In vitro concentration (basal compartment) (DSI gill cell epithelium [8]; nominal water concentration 0.1 μg L^−1): 0.04 (±0.002) ng mL^−1
- In vitro concentration (basal compartment) (DSI gill cell epithelium [8]; nominal water concentration 1.0 μg L^−1): 0.10 (±0.001) ng mL^−1
- In vitro concentration (basal compartment) (DSI gill cell epithelium [8]; [13]): 0.72 (±0.02) ng mL^−1
- In vitro concentration (basal compartment) (DSI gill cell epithelium [8]; [14]): 7.5 (±0.3) ng mL^−1
- In vitro concentration (basal compartment) (DSI gill cell epithelium [8]; [15]): 79.5 (±7.3) ng mL^−1
- In vitro concentration (basal compartment) (DSI gill cell epithelium [8]; [16]): 812 (±158) ng mL^−1
- In vitro concentration (basal compartment) (DSI gill cell epithelium [8]; nominal water concentration 100,000 μg L^−1): 5545 (±313) ng mL^−1
- log Kow ([5]; pH 7.4): 1.12 ^*
- In vivo plasma concentration ([9]; nominal water concentration 1.0 μg L^−1, pooled plasma sample): 0.94 ^* (n/a) ng mL^−1
- In vivo plasma concentration [9, 13]: 3.3 (±0.4) ng mL^−1
- In vivo plasma concentration [9, 14]: 16 (±7) ng mL^−1
- In vivo plasma concentration [9, 15]: 280 (±116) ng mL^−1
- In vivo plasma concentration [9, 16]: 5200 (±1333) ng mL^−1
- actual plasma concentrations as share of predicted [9]: 59%
- facilitated transport as share of the total transport (DSI gill cell epithelium [2]; CETA): approximately 10%
- CETA, percentage of initial concentration apical versus basal (DSI gill cell epithelium [2]; asymmetrical conditions): increased apical to basal transport
- CETA, percentage of initial concentration apical versus basal (DSI gill cell epithelium [2]; symmetrical conditions): significantly more than the basal
- Papp A→B at 6 h, 1 μg L^−1 [3]: 1.7 ± 0.2 ×10⁻⁶ cm/s
- Papp B→A at 6 h, 1 μg L^−1 [3]: 1.1 ± 0.02 ×10⁻⁶ cm/s
- Papp B→A at 6 h, 1 μg L^−1 ([3]; pH 7.7): 0.8 ± 0.1 ×10⁻⁶ cm/s
- difference between Papp A:B and Papp B:A (DSI gill cell epithelium [4]; asymmetrical conditions): significantly higher
- time-dependent BTA, uptake versus efflux (% of donor concentration) (DSI gill cell epithelium [4]; asymmetrical conditions): taken up across the gill cell surface than effluxed

Compound: COc1ccc(CC(C)NCC(O)c2ccc(O)c(NC=O)c2)cc1 (centres unmarked) [Formoterol, formoterol]
- difference between Papp A:B and Papp B:A (DSI gill cell epithelium [10]): no significant differences
- time-dependent BTA, uptake versus efflux (% of donor concentration) (DSI gill cell epithelium [10]): slightly greater uptake than efflux
- Uptake TR (Papp A:B/Papp B:A) (DSI gill cell epithelium [10]): 1.08
- Uptake TR (Papp A:B/Papp B:A) (DSI gill cell epithelium [10]; pH 7.7): 0.97
- pKa (acidic) ([1]; acidic): 7.9
- pKa (basic) ([1]; basic): 9.2
- efflux ratio (in vitro): 0.93
- efflux ratio (in vitro; pH 7.7): 1.03
- CETA, percentage of initial concentration apical versus basal (DSI gill cell epithelium [2]; asymmetrical conditions): no signs of facilitated transport
- CETA, percentage of initial concentration apical versus basal (DSI gill cell epithelium [2]; symmetrical conditions): more in the apical than basal

Compound: CN(C)C(=O)CCSC(SCCC(=O)O)c1cccc(/C=C/c2ccc3ccc(Cl)cc3n2)c1 (centres unmarked) [MK571]
- decrease in propranolol permeability compared to the control ([11]; apical application): approximately 40%
- decrease in propranolol permeability compared to the control ([11]; basal application): approximately 40%

Compound: CN(C)CCCN1c2ccccc2CCc2ccccc21 [Imipramine, imipramine]
- pKa [1]: around 9.5
- facilitated transport as share of the total transport (DSI gill cell epithelium [2]; CETA): approximately 10%
- CETA, percentage of initial concentration apical versus basal (DSI gill cell epithelium [2]; asymmetrical conditions): increased apical to basal transport
- CETA, percentage of initial concentration apical versus basal (DSI gill cell epithelium [2]; symmetrical conditions): increased basal to apical facilitated transport

Compound: OC[C@@H](O)[C@@H](O)[C@H](O)[C@H](O)CO [Mannitol, mannitol]
- Papp at 24 h, 0.43 nM ([12]; pH 7.7, cell free inserts, TER 0 Ω cm^2 (blanked), apical freshwater, read-out: Mannitol flux (permeability)): 3.6 ± 0.2 ×10⁻⁶ cm/s
- Papp A→B at 24 h, 0.43 nM ([12]; pH 7.7, DSI epithelia with TER 200–1000 Ω cm^2, apical freshwater, read-out: mannitol permeability): 1.1 ± 1.1 ×10⁻⁶ cm/s
- Papp A→B at 24 h, 0.43 nM ([12]; pH 7.7, DSI epithelia with TER >2 kΩ cm^2, apical freshwater, read-out: mannitol permeability (Papp A:B)): 0.1 ± 0.01 ×10⁻⁶ cm/s

Compound: COCCc1ccc(OCC(O)CNC(C)C)cc1 (centres unmarked) [Metoprolol, metoprolol]
- CETA, percentage of initial concentration apical versus basal (DSI gill cell epithelium [2]; asymmetrical conditions): no signs of facilitated transport
- CETA, percentage of initial concentration apical versus basal (DSI gill cell epithelium [2]; symmetrical conditions): no significant differences
- difference between Papp A:B and Papp B:A (DSI gill cell epithelium [4]; asymmetrical conditions): no significant differences
- time-dependent BTA, uptake versus efflux (% of donor concentration) (DSI gill cell epithelium [4]; asymmetrical conditions): slightly greater uptake than efflux
